Experimental data taken from patent US20060246436A1 (priority 2002, published 2006).

Tests used:
[1] = tested on: peripheral blood cells positive for Ph chromosome; conditions: of 18 CML patients; after five months of imatinib treatment
Description: The remaining four were reserved to test the predictive scoring system later. Of the 22, two “learning” cases (the cases used for the construction of the prediction system described later) were in blast crisis phase and two “test” cases (the cases used for testing the correctness of the prediction system described later) were in accelerated phase.

[2] = tested on: Ph chromosome-positive leukemia cells; conditions: cited from earlier work

In the case of `Cc1ccc(NC(=O)c2ccc(CN3CCN(C)CC3)cc2)cc1Nc1nccc(-c2cccnc2)n1` [imatinib, 4-(4-methylpiperazin-1-ylmethyl)-N-[4-methyl-3-(4-pyridin-3-ylpyrimidin-2-ylamino)phenyl]benzamide], the “patients with more than 65% of cells still positive for the Ph chromosome, non-responders” value [1] is given as “six”, the adverse effects ([2]; CML patients) is given as “without severe adverse effects” and the “patients in whom Ph chromosome-positive leukemia cells are completely or partially reduced” value ([2]; CML patients) is given as “more than 60%”. The “CML patients induced into hematological complete remission” value [2] was “around 90%”.
